In patent US11649259B2, “Polymorphic forms of deoxycytidine, compositions comprising the same and uses” (ZOGENIX MDS, INC., priority 2019, dated 2023):

Legend:
[1] = Stability of Form B by XRPD pattern after storage (no conversion to Form A); format: physicochemical
From the text: “Stability”, as used herein, can be measured by confirming the Form B XRPD pattern of the material after a given storage time. Conversion of Form B to Form A deoxycytidine, as determined by)(RFD, indicates instability. Stability can also be measured by confirming compliance with the test attribute standards as outlined in Example 4. Test attributes include physical appearance, IR trace, HPLC trace for active and impurities, water content, residual solvent content, elemental impurities and microbial growth. One or more of these attributes can be measured after storage over a given period of time, e.g. 6 months, 12 months or more, and under various conditions, e.g. 25±2° C./60±5% relative humidity or 40±2° C./75±5% relative humidity).
XRPD data for a mixture of A and B dC isoforms (2DC (A+B mix)), the B isoform produced in the small-scale manufacturing run (2DC(7)/S-P-17001 initial) and the isolated A isoform is provided in Table 2. The stability Form B was confirmed by determining the XRPD after 12 months of storage (2DC(7)/S-P-17001 12 month).

[2] = Form B deoxycytidine 12-month stability study (Example 4); format: physicochemical; conditions: four lots; long-term storage 25±2° C./60±5% relative humidity and accelerated storage 40±2° C./75±5% relative humidity; measured at 3, 6, 9 and 12 months
Protocol: A study was conducted to determine the stability of Form B deoxycytidine prepared by the methods in Example 1 over a 12-month period. Four lots of material were studied: (1) and (2) were packaged in a polyethylene (PE) bag sealed with a cable tie, (3) was packed in a PE bag with silica gel sealed with a cable tie, and (4) was packaged in a PE drum sealed with a cap. […]
All attributes were measured initially (0 months) to confirm compliance with the standards above. Appearance, IR, HPLC and water content were then measured at 3, 6, 9 and 12 months to confirm compliance. Microbial content was measured again at 12 months.

stability of Form B, XRPD pattern after storage ([1]; after 12 months of storage, lot 2DC(7)/S-P-17001, 4 kg scale): confirmed
time for which the form is stable ([1]; stored in a sealed container at e.g. room temperature): at least 6 months
changes in test attributes (appearance, IR, HPLC, water content, microbial content) from initial to 12 months [2]: no significant changes
SMILES: Nc1ccn([C@H]2C[C@H](O)[C@@H](CO)O2)c(=O)n1 [Form B deoxycytidine, Deoxycytidine (2′-Deoxycytidine, dC)]
